{
  "source": "patent US20080221135A1",
  "about": "“COMBINATION THERAPY” (Bristol-Myers Squibb Company, priority 2005, published 2008)",
  "key": {"[1]": {"assay": "oral bioavailability in dog", "format": "in vivo"}, "[2]": {"assay": "oral bioavailability in humans", "conditions": "human, in vivo, 45% coefficient of variation"}, "NSCLC [3]": {"system": "NSCLC", "assay": "single-agent treatment of NSCLC patients", "format": "in vivo, humans", "conditions": "Compound I"}, "[4]": {"assay": "oral bioavailability in rats", "format": "in vivo", "conditions": "rat"}, "tumor [5]": {"system": "tumor", "assay": "Phase I data, Compound I single agent", "format": "in vivo, humans"}, "tumor [6]": {"system": "tumor", "assay": "preclinical anti-tumor activity", "format": "in vivo", "conditions": "oral Compound I versus I.V. paclitaxel"}, "[7]": {"system": "variety of tumor types, including NSCLC", "conditions": "cited from earlier work"}, "NSCLC [8]": {"system": "NSCLC", "conditions": "chemo-naive or pre-treated NSCLC; cited from earlier work"}},
  "data": [
    {"smiles": "COC(=O)O[C@@]12CO[C@@H]1C[C@H](O)[C@@]1(C)C(=O)[C@H](OC(C)=O)C3=C(C)[C@@H](OC(=O)[C@H](O)[C@@H](NC(=O)OC(C)(C)C)C(C)(C)C)C[C@@](O)([C@@H](OC(=O)c4ccccc4)[C@H]21)C3(C)C", "note": "[Compound I, 3′-tert-butyl-3′-N-tert-butyloxycarbonyl-4-deacetyl-3′-dephenyl-3′-N-debenzoyl-4-O-methoxycarbonyl-paclitaxel]", "values": [
      {"measurement": "oral bioavailability", "setting": "[1]", "result": "good oral bioavailability"},
      {"measurement": "bioavailability", "setting": "[2]", "result": 24, "unit": "%"},
      {"measurement": "activity in treatment of pre-treated NSCLC", "setting": "NSCLC [3]", "result": "promising early signs of activity"},
      {"measurement": "main toxicity", "setting": "NSCLC [3]; pre-treated NSCLC", "result": "transient, manageable neuropathy"},
      {"measurement": "oral bioavailability", "setting": "[4]", "result": "good oral bioavailability"},
      {"measurement": "anti-tumor activity", "setting": "tumor [5]; continuous weekly schedule, doses of 120 mg/m^2 and higher", "result": "shows anti-tumor activity"},
      {"measurement": "tolerability", "setting": "tumor [5]; doses of 120 and 200 mg/m^2", "result": "acceptable"},
      {"measurement": "dose limiting toxicities", "setting": "tumor [5]; twice weekly schedule, doses of 60 mg/m^2 and higher, versus weekly schedule", "result": "may reduce dose limiting toxicities"},
      {"measurement": "preclinical anti-tumor activity", "setting": "tumor [6]", "result": "comparable to intravenous (I.V.) paclitaxel"}
    ]},
    {"smiles": "Nc1nc2[nH]cc(CCc3ccc(C(=O)N[C@@H](CCC(=O)O)C(=O)O)cc3)c2c(=O)[nH]1", "note": "[Pemetrexed]", "values": [
      {"measurement": "anti-tumor activity in pre-clinical models", "setting": "[7]", "result": "has shown anti-tumor activity"},
      {"measurement": "activity in treatment of NSCLC", "setting": "NSCLC [8]", "result": "single-agent activity"},
      {"measurement": "tolerability profile", "setting": "NSCLC [8]", "result": "acceptable tolerability profile"}
    ]}
  ]
}
